Measurements: patent publication US7923465B2, “Cannabinoid receptor ligands, pharmaceutical compositions containing them, and process for their preparation” (priority 2005, dated 2011)

Tested on: not given
Experiment: not given
Details: not given
Work on `O=C(NCc1c(F)cccc1F)c1nn(-c2ccc(Cl)cc2)c2c1C1CC3CC(C1)CC2C3` [Example 115, N(7)-(2,6-Difluorobenzyl)-5-(4-chlorophenyl)-5,6-diazatetracyclo[7.3.1.1^3,11.0^4,8]tetradeca-4(8),6-diene-7-carboxamide] yielded a melting point of 166 to 167 °C. In the case of `O=C(NCc1c(F)cccc1F)c1nn(-c2ccc(Cl)cc2Cl)c2c1C1CCC2C1` (stereo not drawn) [Example 248, N(3)-(2,6-Difluorobenzyl)-1-(2,4-dichlorophenyl)-4,5,6,7-tetrahydro-1H-4,7-methano-indazole-3-carboxamide], the melting point is reported as 130 to 133 °C. In the case of `CN(NC(=O)c1nn(-c2ccc(Cl)cc2Cl)c2c1C1CCC2C1)c1ccccc1Cl` (stereo not drawn) [Example 258, N(3)-[N-(2-Chlorophenyl)-N-methylamino]-1-(2,4-dichlorophenyl)-4,5,6,7-tetrahydro-1H-4,7-methano-indazole-3-carboxamide], the melting point is reported as 121 to 124 °C. Compound `CN(NC(=O)c1nn(-c2ccc(Cl)cc2Cl)c2c1C1CCC2C1)c1ccc(Cl)cc1Cl` (stereo not drawn) [Example 261, N(3)-[(2,4dichlorophenyl)-N-methylamino]-1-(2,4-dichlorophenyl)-4,5,6,7-tetrahydro-1H-4,7-methano-indazole-3-carboxamide] has a melting point of 135 to 138 °C. For `O=C(NNc1ccccc1F)c1nn(-c2ccc(Br)cc2)c2c1C1CCC2C1` (stereo not drawn) [Example 278, N(3)-[(2-Fluorophenyl)amino]-1-(4-bromophenyl)-4,5,6,7-tetrahydro-1H-4,7-methano-indazole-3-carboxamide], the melting point was 123 °C.

Molecular target: hCB2 (Homo sapiens, UniProt P34972)
Sequence (P34972 whole entry): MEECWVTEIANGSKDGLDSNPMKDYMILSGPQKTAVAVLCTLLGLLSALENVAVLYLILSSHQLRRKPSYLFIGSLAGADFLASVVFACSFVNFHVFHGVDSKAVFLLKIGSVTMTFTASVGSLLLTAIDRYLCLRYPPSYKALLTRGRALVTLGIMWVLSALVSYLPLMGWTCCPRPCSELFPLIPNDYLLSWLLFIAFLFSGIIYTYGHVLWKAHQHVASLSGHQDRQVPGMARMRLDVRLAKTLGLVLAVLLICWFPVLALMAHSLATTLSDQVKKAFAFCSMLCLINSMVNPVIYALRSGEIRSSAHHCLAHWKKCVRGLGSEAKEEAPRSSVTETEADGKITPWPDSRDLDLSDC
Experiment: In vitro binding assay using hCB2-CHO membranes, [3H]-CP-55,940 displacement (Protocol IV)
Design: expressed in transfected cells; host or cells: CHO (hCB2-CHO, generated in-house)
Details: 1 h, read-out: % Displacement Protocol IV
Description: IV. Protocol for In Vitro Assay Using hCB2-CHO Membranes:
In this assay, [^3H]-CP-55,940 was used as the radioligand to bind human CB2 receptor expressed on the membranes from CHO cells (hCB2-CHO cell line was generated in-house) which can be displaced by unlabeled ligands having affinity to the CB2 receptor.
The assay was performed according to the modified method of Ross et al., 1999 (Br. J. Pharmacol. 128, 735-743). The reaction was set up in a total volume of 200 μl in PEI (0.2%) precoated Millipore GFB filter plates. 1 mM stocks of test compounds were prepared in DMSO and tested at a final concentration of 300 nM. The non-specific binding was determined by 0.5 μM CP-55, 940. The total reaction mixture contained Tris-BSA buffer (50 mM Tris, 5 mM MgCl2, 1 mM EDTA, pH 7.4 with 0.1% BSA), unlabelled CP-55, 940 (0.5 μM) or test samples, [^3H]-CP-55, 940 (0.75 nM) and 25-50 μg of human CB2 receptor preparation. The assay mixture (with or without the test compound) was incubated at 30° C. for 1 hour. The reaction was stopped by rapid filtration under vacuum and the radioactivity on the filters was measured by liquid scintillation counting.
The percent (%) displacement by a test ligand was calculated by comparing the specific bound values.
In the case of `CCCCCn1nc2c(c1C(=O)NC(C)(C)c1ccccc1)C1CC3CC(CC2C3)C1` [Example 190a, N(7)-(1-Methyl-1-phenylethyl)-6-pentyl-5,6-diazatetracyclo[7.3.1.1^3,11.0^4,8]tetradeca-4,7-diene-7-carboxamide], the inhibition at 0.3 µM is reported as 0%. `CC(C)(C)NC(=O)c1nn(-c2ccc(Br)cc2)c2c1C1CCC2C1` (stereo not drawn) [Example 324, N(3)-(tert-Butyl)-1-(4-bromophenyl)-4,5,6,7-tetrahydro-1H-4,7-methano-indazole-3-carboxamide] showed an inhibition at 0.3 µM of 88.5%. With `O=C(NC12CC3CC(CC(C3)C1)C2)c1nn(-c2ccc(F)cc2F)c2c1C1CCC2C1` (stereo not drawn) [Example 334, N(3)-(Adamantan-1yl)-1-(2,4-difluorophenyl)-4,5,6,7-tetrahydro-1H-4,7-methano-indazole-3-carboxamide] the inhibition at 0.3 µM was 100%. Work on `CC(C)(C)NC(=O)c1nn(Cc2ccc(F)cc2)c2c1C1CCC2C1` (stereo not drawn) [Example 335a, N(3)-(tert-butyl)-1-(4-fluorobenzyl)-4,5,6,7-tetrahydro-1H-4,7-methano-indazole-3-carboxamide] yielded an inhibition at 0.3 µM of 96.5%.

Same assay, conditions: 1 h; hCB2-CHO membranes, [3H]-CP-55,940 displacement; read-out: % Displacement Protocol IV
`CC(NC(=O)c1nn(-c2ccc(Cl)cc2)c2c1C1CC3CC(C1)CC2C3)c1ccccc1Cl` (stereo not drawn) [Example 138, N7-[1-(2-Chlorophenyl)ethyl]-5-(4-chlorophenyl)-5,6-diazatetracyclo[7.3.1.1^3,11.0^4,8]tetradeca-4(8),6-diene-7-carboxamide] showed an inhibition at 0.3 µM of 68%. Work on `CC(NC(=O)c1nn(-c2ccc(F)cc2F)c2c1C1CC3CC(C1)CC2C3)c1ccccc1Cl` (stereo not drawn) [Example 151, N(7)-[1-(2-Chlorophenyl)ethyl]-5-(2,4-difluorophenyl)-5,6-diazatetracyclo[7.3.1.1^3,11.0^4,8]tetradeca-4(8),6-diene-7-carboxamide] yielded an inhibition at 0.3 µM of 69.2%. `O=C(NCc1ccccc1Cl)c1nn(-c2ccc(Cl)cn2)c2c1C1CC3CC(C1)CC2C3` [Example 185, N7-(2-Chlorobenzyl)-5-(5-chloro-2-pyridyl)-5,6-diazatetracyclo[7.3.1.1^3,11.0^4,8]tetradeca-4(8),6-diene-7-carboxamide] gave an inhibition at 0.3 µM of 60.7%. `O=C(NCc1ccccc1Cl)c1nn(-c2ccc(F)cc2F)c2c1C1CCC2C1` (stereo not drawn) [Example 297, N5-(2-Chlorobenzyl)-3-(2,4-difluorophenyl)-3,4-diazatricyclo[5.2.1.0^2,6]deca-2(6),4-diene-5-carboxamide] gave an inhibition at 0.3 µM of 70.3%. With `CN1CCN(NC(=O)c2nn(-c3ccc(F)cc3F)c3c2C2CCC3C2)CC1` (stereo not drawn) [Example 318, N(3)-(4-methylpiperazino)-1-(2,4-difluorophenyl)-4,5,6,7-tetrahydro-1H-4,7-methano-indazole-3-carboxamide] the inhibition at 0.3 µM was 31%. Work on `CC(C)(C)NC(=O)c1nn(-c2ccc(Cl)cc2)c2c1C1CCC2C1` (stereo not drawn) [Example 321, N(3)-(tert-Butyl)-1-(4-chlorophenyl)-4,5,6,7-tetrahydro-1H-4,7-methano-indazole-3-carboxamide] yielded an inhibition at 0.3 µM of 92.9%. In the case of `CC(C)(C)NC(=O)c1n[nH]c2c1C1(c3ccc(Cl)c(Cl)c3)CCC2C1` (stereo not drawn) [Example 325, N(3)-(tert-Butyl)-4-(3,4-dichlorophenyl)-4,5,6,7-tetrahydro-1H-4,7-methano-indazole-3-carboxamide], the inhibition at 0.3 µM is reported as 99.6%. With `CC(C)(C)NC(=O)c1nn(-c2ccc(Cl)cc2Cl)c2c1C1CCC2C1` (stereo not drawn) [Example 327, N(3)-(tert-Butyl)-1-(2,4-dichlorophenyl)-4,5,6,7-tetrahydro-1H-4,7-methano-indazole-3-carboxamide] the inhibition at 0.3 µM was 100%. `O=C(Nc1ccc(O)cc1)c1nn(-c2ccc(F)cc2F)c2c1C1CCC2C1` (stereo not drawn) [Example 328, N(3)-(4-Hydroxyphenyl)-1-(2,4-difluorophenyl)-4,5,6,7-tetrahydro-1H-4,7-methano-indazole-3-carboxamide] gave an inhibition at 0.3 µM of 64.4%. `CCOc1cc(F)ccc1-n1nc(C(=O)NC(C)(C)C)c2c1C1CCC2C1` (stereo not drawn) [Example 329, N(3)-(tert-Butyl)-1-(2-ethoxy,4-fluorophenyl)-4,5,6,7-tetrahydro-1H-4,7-methano-indazole-3-carboxamide] showed an inhibition at 0.3 µM of 88.5%. Work on `O=C(NCc1ccco1)c1nn(-c2ccc(F)cc2F)c2c1C1CCC2C1` (stereo not drawn) [Example 330, N(3)-(2-furylmethyl)-1-(2,4-difluorophenyl)-4,5,6,7-tetrahydro-1H-4,7-methano-indazole-3-carboxamide] yielded an inhibition at 0.3 µM of 64.9%. In the case of `O=C(N[C@H](CO)c1ccc(F)cc1)c1nn(-c2ccc(F)cc2F)c2c1C1CCC2C1` (stereo partly drawn) [Example 332, N(3)-[(1S)-2-Hydroxy-1-(4-fluorophenyl)ethyl]-1-(2,4-difluorophenyl)-4,5,6,7-tetrahydro-1H-4,7-methano-indazole-3-carboxamide], the inhibition at 0.3 µM is reported as 70.1%. With `CC(C)(C)NC(=O)C1C2=C(NN1Cc1ccc(F)cc1)C1CCC2C1` (stereo not drawn) [Example 335b, N(3)-(tert-butyl)-2-(4-fluorobenzyl)-4,5,6,7-tetrahydro-1H-4,7-methano-indazole-3-carboxamide] the inhibition at 0.3 µM was 8.7%. Compound `Cc1ccc(CN2NC3=C(C4CCC3C4)C2C(=O)NC(C)(C)C)cc1` (stereo not drawn) [Example 336b, N(3)-(tert-butyl)-2-(4-methylbenzyl)-4,5,6,7-tetrahydro-1H-4,7-methano-indazole-3-carboxamide] has an inhibition at 0.3 µM of 26.5%. Work on `CC12CCC(C1)C(C)(C)C2NC(=O)c1nn(-c2ccc(Cl)cc2Cl)c2c1C1CCC2c2ccccc21` (stereo not drawn) [Example 507, N12-(1,3,3-Trimethylbicyclo[2.2.1]hept-2-yl)-10-(2,4-dichlorophenyl)-10,11-diazatetracyclo[6.5.2.0^2,7.0^9,13]pentadeca-2(7),3,5,9(13),11-pentaene-12-carboxamide] yielded an inhibition at 0.3 µM of 91.7%. With `CC(C)(NC(=O)c1nn(-c2ccc(Cl)cc2Cl)c2c1C1CCC2c2ccccc21)c1ccccc1` (stereo not drawn) [Example 508, N12-(1-Methyl-1-phenylethyl)-10-(2,4-dichlorophenyl)-10,11-diazatetracyclo[6.5.2.0^2,7.0^9,13]pentadeca-2,4,6,9(13),11-pentaene-12-carboxamide] the inhibition at 0.3 µM was 67.7%.

Same assay, conditions: hCB2-CHO membranes, [3H]-CP-55,940 displacement
With `O=C(NCc1cccs1)c1nn(-c2ccc(F)cc2F)c2c1C1CCC2C1` (stereo not drawn) [Example 331, N(3)-(2-thiophenemethyl)-1-(2,4-difluorophenyl)-4,5,6,7-tetrahydro-1H-4,7-methano-indazole-3-carboxamide] the “% Displacement Protocol IV” value was 75.26%. For `COC(=O)[C@H](CC(C)C)NC(=O)c1nn(-c2ccc(F)cc2F)c2c1C1CCC2C1` (stereo partly drawn) [Example 333, Methyl-(2S)-2-[5-(2,4-difluorophenyl)-4,5-diazatricyclo[5.2.1.0.^2,6]deca-2(6),3-dien-3-ylcarboxamido]-4-methylpentanoate], the “% Displacement Protocol IV” value was 100.00%. With `CC12CCC(c3c(C(=O)N[C@@H](CO)c4ccccc4)nn(-c4ccc(F)cc4F)c31)C2(C)C` (stereo partly drawn) [Example 410] the “% Displacement Protocol IV” value was 15.5%. In the case of `CC(C)(C)NC(=O)c1nn(-c2ccc(F)cc2F)c2c1[C@H]1CC[C@]2(C)C1(C)C` [Example 411, (4S,7R)—N(3)-tert-Butyl-1-(2,4-difluorophenyl)-7,8,8-trimethyl-4,5,6,7-tetrahydro-1H-methano-indazole-3-carboxamide], the “% Displacement Protocol IV” value is reported as 49.68%. For `CC(C)(C)NC(=O)c1nn(-c2ccc(F)cc2F)c2c1C1CCC2c2ccccc21` (stereo not drawn) [Example 702, N(12)-tert-Butyl-10-(2,4-difluorophenyl)-10,11-diazatetracyclo[6.5.2.0^2,7.0^9,13]tetradeca-2,4,6,9(13),11-pentaene-12-carboxamide], the “% Displacement Protocol IV” value was 33.00%.
